According to paper PMC8371461 (Frontiers in Pharmacology, 2021):
Like-named read-outs stand apart in the source and are kept apart here.

Assays:
Assay in all cases: kinome scan
Type in all cases: binding
[1] = molecular target: T1, ABL1(E255K)-phosphorylated (Homo sapiens, UniProt P00519, E255K); conditions: 10 µM
T1 construct: purchased DiscoverX (KINOMEscan)

[2] = molecular target: T2, ABL1(Y253F)-phosphorylated (Homo sapiens, UniProt P00519, Y253F); conditions: 10 µM
T2 construct: purchased DiscoverX (KINOMEscan)

[3] = molecular target: T3, ABL1-nonphosphorylated (Homo sapiens, UniProt P00519); conditions: 10 µM
T3 construct: purchased DiscoverX (KINOMEscan)

[4] = molecular target: T4, ALK (Homo sapiens, UniProt Q9UM73); conditions: 10 µM
T4 construct: purchased DiscoverX (KINOMEscan)

[5] = molecular target: T5, ASK2 (Homo sapiens, UniProt O95382); conditions: 10 µM
T5 construct: purchased DiscoverX (KINOMEscan)

[6] = molecular target: T6, AURKB (Homo sapiens, UniProt Q96GD4); conditions: 10 µM
T6 construct: purchased DiscoverX (KINOMEscan)
T6 sequence (Q96GD4 whole entry): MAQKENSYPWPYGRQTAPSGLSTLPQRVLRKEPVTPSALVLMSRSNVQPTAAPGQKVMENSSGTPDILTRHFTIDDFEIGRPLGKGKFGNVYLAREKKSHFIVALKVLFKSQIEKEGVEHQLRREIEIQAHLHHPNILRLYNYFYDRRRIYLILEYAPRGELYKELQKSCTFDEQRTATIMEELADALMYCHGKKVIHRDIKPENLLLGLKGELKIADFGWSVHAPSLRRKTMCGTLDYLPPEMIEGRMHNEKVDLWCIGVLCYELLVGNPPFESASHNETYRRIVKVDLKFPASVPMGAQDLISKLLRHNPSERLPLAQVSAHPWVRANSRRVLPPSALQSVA

[7] = molecular target: T7, BMPR2 (Homo sapiens, UniProt Q13873); conditions: 10 µM
T7 construct: purchased DiscoverX (KINOMEscan)

[8] = molecular target: T8, DDR1 (Homo sapiens, UniProt Q08345); conditions: 10 µM
T8 construct: purchased DiscoverX (KINOMEscan)

[9] = molecular target: T9, DYRK1A (Homo sapiens, UniProt Q13627); conditions: 10 µM
T9 construct: purchased DiscoverX (KINOMEscan)

[10] = molecular target: T10, EGFR(G719S) (Homo sapiens, UniProt P00533, G719S); conditions: 10 µM
T10 construct: purchased DiscoverX (KINOMEscan)

[11] = molecular target: T11, EGFR(L858R) (Homo sapiens, UniProt P00533, L858R); conditions: 10 µM
T11 construct: purchased DiscoverX (KINOMEscan)

[12] = molecular target: T12, FAK (Homo sapiens, UniProt Q05397); conditions: 10 µM
T12 construct: purchased DiscoverX (KINOMEscan)

[13] = molecular target: T13, FLT3(K663Q) (Homo sapiens, UniProt P36888, K663Q)
T13 construct: purchased DiscoverX (KINOMEscan)

[14] = molecular target: T14, GRK7 (Homo sapiens, UniProt Q8WTQ7); conditions: 10 µM
T14 construct: purchased DiscoverX (KINOMEscan)

[15] = molecular target: T15, HIPK2 (Homo sapiens, UniProt Q9H2X6); conditions: 10 µM
T15 construct: purchased DiscoverX (KINOMEscan)
T15 sequence (Q9H2X6 whole entry): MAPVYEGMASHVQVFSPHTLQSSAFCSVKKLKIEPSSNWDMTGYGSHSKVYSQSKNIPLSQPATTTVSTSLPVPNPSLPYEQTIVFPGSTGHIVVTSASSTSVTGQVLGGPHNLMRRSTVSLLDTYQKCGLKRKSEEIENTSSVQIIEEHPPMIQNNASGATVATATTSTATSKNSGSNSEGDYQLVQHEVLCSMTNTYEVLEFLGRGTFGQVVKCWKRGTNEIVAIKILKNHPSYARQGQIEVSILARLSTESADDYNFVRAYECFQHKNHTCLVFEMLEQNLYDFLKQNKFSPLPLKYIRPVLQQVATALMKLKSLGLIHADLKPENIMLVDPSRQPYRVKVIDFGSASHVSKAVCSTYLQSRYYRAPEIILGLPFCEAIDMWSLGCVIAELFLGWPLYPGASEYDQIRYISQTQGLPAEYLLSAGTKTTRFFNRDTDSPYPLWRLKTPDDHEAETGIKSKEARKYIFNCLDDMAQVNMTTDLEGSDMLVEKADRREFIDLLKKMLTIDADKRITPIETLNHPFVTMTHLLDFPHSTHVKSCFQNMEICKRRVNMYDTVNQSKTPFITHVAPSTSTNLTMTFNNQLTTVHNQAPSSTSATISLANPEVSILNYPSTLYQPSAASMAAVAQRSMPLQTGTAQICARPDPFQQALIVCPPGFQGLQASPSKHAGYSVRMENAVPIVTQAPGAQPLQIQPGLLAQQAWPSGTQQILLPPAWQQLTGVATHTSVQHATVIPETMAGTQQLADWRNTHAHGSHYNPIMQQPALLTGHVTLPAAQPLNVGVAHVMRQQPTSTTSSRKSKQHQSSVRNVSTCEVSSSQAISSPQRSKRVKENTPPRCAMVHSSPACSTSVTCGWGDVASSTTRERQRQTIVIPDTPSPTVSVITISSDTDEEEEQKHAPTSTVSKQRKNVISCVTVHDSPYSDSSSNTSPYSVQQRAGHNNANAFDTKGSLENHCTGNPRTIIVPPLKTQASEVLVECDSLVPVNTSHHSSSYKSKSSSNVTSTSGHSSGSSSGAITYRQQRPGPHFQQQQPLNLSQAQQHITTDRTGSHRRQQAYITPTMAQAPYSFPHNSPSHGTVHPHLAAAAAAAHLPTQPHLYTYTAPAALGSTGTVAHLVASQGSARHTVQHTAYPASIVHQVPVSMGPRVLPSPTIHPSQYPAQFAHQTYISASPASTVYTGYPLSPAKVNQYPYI

[16] = molecular target: T16, HPK1 (Homo sapiens, UniProt Q92918); conditions: 10 µM
T16 construct: purchased DiscoverX (KINOMEscan)

[17] = molecular target: T17, MAPKAPK2 (Homo sapiens, UniProt P49137); conditions: 10 µM
T17 construct: purchased DiscoverX (KINOMEscan)

[18] = molecular target: T18, MARK3 (Homo sapiens, UniProt P27448); conditions: 10 µM
T18 construct: purchased DiscoverX (KINOMEscan)

[19] = molecular target: T19, MARK4 (Homo sapiens, UniProt Q96L34); conditions: 10 µM
T19 construct: purchased DiscoverX (KINOMEscan)

[20] = molecular target: T20, MELK (Homo sapiens, UniProt Q14680); conditions: 10 µM
T20 construct: purchased DiscoverX (KINOMEscan)

[21] = molecular target: T21, MET (Homo sapiens, UniProt P08581); conditions: 10 µM
T21 construct: purchased DiscoverX (KINOMEscan)

[22] = molecular target: T22, MKNK2 (Homo sapiens, UniProt Q9HBH9)
T22 construct: purchased DiscoverX (KINOMEscan)
T22 sequence (Q9HBH9 whole entry): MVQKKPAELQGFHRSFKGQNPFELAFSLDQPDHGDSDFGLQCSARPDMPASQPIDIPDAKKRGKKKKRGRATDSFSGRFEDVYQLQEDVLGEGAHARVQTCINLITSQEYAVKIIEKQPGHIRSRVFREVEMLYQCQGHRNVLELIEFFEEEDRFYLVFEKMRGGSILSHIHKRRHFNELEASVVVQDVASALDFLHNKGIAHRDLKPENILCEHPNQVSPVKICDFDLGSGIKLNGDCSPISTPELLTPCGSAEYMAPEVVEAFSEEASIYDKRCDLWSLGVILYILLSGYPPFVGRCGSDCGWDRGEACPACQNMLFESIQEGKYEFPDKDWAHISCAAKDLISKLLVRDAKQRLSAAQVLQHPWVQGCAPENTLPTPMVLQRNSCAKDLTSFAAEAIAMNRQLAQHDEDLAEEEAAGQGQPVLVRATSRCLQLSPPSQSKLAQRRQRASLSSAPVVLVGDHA

[23] = molecular target: T23, MRCKA (Homo sapiens, UniProt Q5VT25); conditions: 10 µM
T23 construct: purchased DiscoverX (KINOMEscan)

[24] = molecular target: T24, MUSK (Homo sapiens, UniProt O15146); conditions: 10 µM
T24 construct: purchased DiscoverX (KINOMEscan)

[25] = molecular target: T25, MYLK4 (Homo sapiens, UniProt Q86YV6); conditions: 10 µM
T25 construct: purchased DiscoverX (KINOMEscan)

[26] = molecular target: T26, MYO3A (Homo sapiens, UniProt Q8NEV4); conditions: 10 µM
T26 construct: purchased DiscoverX (KINOMEscan)
T26 sequence (Q8NEV4 whole entry): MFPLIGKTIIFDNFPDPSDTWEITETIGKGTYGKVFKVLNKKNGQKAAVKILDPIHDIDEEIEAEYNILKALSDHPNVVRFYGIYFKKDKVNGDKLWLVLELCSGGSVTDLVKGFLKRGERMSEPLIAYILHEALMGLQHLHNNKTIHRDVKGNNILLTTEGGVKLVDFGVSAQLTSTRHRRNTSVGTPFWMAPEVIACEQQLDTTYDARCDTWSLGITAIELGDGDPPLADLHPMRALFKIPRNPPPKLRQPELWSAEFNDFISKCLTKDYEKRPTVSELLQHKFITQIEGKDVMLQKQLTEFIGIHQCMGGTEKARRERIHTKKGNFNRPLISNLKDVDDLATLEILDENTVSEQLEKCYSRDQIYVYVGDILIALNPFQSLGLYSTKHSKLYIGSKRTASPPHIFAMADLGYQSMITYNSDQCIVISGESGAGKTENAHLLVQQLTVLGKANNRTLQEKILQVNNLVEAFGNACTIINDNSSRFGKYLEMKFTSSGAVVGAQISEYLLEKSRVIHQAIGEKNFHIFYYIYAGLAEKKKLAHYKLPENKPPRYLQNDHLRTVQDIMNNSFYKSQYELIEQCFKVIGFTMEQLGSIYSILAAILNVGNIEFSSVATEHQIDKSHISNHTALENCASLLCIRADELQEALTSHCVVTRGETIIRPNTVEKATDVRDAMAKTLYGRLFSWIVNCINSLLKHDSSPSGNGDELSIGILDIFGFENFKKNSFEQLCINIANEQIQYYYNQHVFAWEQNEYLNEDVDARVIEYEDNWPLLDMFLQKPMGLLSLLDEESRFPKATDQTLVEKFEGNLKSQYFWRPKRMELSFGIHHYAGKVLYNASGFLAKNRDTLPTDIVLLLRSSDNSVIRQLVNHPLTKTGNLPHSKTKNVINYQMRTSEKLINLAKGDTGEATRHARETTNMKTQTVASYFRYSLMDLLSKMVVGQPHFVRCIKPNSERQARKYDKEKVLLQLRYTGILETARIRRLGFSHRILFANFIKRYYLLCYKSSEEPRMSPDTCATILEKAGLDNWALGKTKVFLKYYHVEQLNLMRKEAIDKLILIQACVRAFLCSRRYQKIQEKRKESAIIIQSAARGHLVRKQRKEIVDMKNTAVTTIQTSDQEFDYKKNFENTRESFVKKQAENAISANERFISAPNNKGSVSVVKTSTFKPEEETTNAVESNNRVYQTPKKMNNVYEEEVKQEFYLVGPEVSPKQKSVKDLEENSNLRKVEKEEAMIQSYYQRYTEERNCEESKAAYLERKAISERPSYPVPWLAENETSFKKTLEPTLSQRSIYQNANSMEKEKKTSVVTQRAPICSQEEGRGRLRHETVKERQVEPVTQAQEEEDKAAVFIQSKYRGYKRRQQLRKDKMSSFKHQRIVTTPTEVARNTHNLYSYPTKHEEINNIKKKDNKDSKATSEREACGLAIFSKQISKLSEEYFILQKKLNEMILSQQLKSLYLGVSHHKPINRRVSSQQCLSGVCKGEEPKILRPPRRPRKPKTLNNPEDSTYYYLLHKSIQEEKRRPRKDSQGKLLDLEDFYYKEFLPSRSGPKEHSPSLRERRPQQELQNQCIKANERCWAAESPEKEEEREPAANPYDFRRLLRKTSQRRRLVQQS

[27] = molecular target: T27, NEK9 (Homo sapiens, UniProt Q8TD19); conditions: 10 µM
T27 construct: purchased DiscoverX (KINOMEscan)

[28] = molecular target: T28, NIM1 (Homo sapiens, UniProt Q8IY84); conditions: 10 µM
T28 construct: purchased DiscoverX (KINOMEscan)

[29] = molecular target: T29, PDPK1 (Homo sapiens, UniProt O15530); conditions: 10 µM
T29 construct: purchased DiscoverX (KINOMEscan)

[30] = molecular target: T30, PHKG2 (Homo sapiens, UniProt P15735); conditions: 10 µM
T30 construct: purchased DiscoverX (KINOMEscan)

[31] = molecular target: T31, PIK3C2G (Homo sapiens, UniProt O75747)
T31 construct: purchased DiscoverX (KINOMEscan)
T31 sequence (O75747 whole entry): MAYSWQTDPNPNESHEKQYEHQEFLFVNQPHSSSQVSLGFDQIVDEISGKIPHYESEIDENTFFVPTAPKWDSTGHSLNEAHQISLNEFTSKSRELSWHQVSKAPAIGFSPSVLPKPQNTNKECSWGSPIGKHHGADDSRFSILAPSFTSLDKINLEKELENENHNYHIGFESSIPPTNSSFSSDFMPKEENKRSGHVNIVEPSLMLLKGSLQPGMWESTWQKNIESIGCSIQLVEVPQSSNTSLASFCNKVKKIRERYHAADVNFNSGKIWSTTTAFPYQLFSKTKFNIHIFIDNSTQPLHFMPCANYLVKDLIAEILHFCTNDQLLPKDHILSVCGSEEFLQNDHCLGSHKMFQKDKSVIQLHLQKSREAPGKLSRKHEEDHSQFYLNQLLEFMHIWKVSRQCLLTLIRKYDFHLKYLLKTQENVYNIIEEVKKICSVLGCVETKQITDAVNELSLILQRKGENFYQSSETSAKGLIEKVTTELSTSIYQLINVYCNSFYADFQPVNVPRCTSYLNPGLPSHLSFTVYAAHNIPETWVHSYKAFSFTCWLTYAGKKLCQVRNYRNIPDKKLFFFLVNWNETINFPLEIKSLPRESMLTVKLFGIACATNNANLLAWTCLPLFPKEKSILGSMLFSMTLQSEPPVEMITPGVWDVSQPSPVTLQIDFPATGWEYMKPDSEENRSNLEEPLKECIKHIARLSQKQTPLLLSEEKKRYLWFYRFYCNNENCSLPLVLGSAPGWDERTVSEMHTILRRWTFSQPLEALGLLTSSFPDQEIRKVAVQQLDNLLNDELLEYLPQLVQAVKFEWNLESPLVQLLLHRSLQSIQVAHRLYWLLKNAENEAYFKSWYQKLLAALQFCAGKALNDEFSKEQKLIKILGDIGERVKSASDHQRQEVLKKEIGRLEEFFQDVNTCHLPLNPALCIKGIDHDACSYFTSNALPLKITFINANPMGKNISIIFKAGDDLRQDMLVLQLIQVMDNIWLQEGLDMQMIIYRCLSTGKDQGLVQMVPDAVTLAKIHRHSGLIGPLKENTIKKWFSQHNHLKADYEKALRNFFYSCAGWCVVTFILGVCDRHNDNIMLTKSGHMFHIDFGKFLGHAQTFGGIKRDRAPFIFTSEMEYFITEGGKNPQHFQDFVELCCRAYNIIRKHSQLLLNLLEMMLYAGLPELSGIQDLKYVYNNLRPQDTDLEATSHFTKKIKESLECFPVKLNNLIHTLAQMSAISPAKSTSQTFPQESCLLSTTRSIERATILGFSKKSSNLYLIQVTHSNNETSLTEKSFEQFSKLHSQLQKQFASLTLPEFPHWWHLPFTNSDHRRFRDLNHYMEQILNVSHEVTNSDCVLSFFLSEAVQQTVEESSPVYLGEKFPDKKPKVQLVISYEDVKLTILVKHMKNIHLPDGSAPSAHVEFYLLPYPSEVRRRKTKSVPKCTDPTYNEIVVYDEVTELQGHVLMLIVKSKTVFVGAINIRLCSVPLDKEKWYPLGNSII

[32] = molecular target: T32, PIK3CA(C420R) (Homo sapiens, UniProt P42336, C420R); conditions: 10 µM
T32 construct: purchased DiscoverX (KINOMEscan)

[33] = molecular target: T33, PIK3CA(E545K) (Homo sapiens, UniProt P42336, E545K); conditions: 10 µM
T33 construct: purchased DiscoverX (KINOMEscan)

[34] = molecular target: T34, PIK3CA(M1043I) (Homo sapiens, UniProt P42336, M1043I); conditions: 10 µM
T34 construct: purchased DiscoverX (KINOMEscan)

[35] = molecular target: T35, PRKCE (Homo sapiens, UniProt Q02156); conditions: 10 µM
T35 construct: purchased DiscoverX (KINOMEscan)

[36] = molecular target: T36, PRKG1 (Homo sapiens, UniProt Q13976); conditions: 10 µM
T36 construct: purchased DiscoverX (KINOMEscan)

[37] = molecular target: T37, PRKG2 (Homo sapiens, UniProt Q13237); conditions: 10 µM
T37 construct: purchased DiscoverX (KINOMEscan)

[38] = molecular target: T38, RET(M918T) (Homo sapiens, UniProt P07949, M918T); conditions: 10 µM
T38 construct: purchased DiscoverX (KINOMEscan)

[39] = molecular target: T39, RET(V804M) (Homo sapiens, UniProt P07949, V804M); conditions: 10 µM
T39 construct: purchased DiscoverX (KINOMEscan)

[40] = molecular target: T40, RIPK5 (Homo sapiens, UniProt Q6XUX3); conditions: 10 µM
T40 construct: purchased DiscoverX (KINOMEscan)

[41] = molecular target: T41, TYRO3 (Homo sapiens, UniProt Q06418); conditions: 10 µM
T41 construct: purchased DiscoverX (KINOMEscan)

[42] = molecular target: T42, YANK3 (Homo sapiens, UniProt Q86UX6); conditions: 10 µM
T42 construct: purchased DiscoverX (KINOMEscan)

With Nc1ccc(N=Nc2ccccc2)c(N)n1 [phenazopyridine, 2,6-diamino-3-(phenylazo)pyridine] the kinase inhibition [1] was 62, the kinase inhibition [2] was 90 and the kinase inhibition [3] was 86. The kinase inhibition [4] was 89, the kinase inhibition [5] was 83 and the kinase inhibition [6] was 72. For the same compound, the kinase inhibition [7] was 97, the kinase inhibition [8] was 96 and the “remaining binding (% of control)” value [9] was 73. The kinase inhibition [10] was 92, the kinase inhibition [11] was 100 and the kinase inhibition [12] was 96. For the same compound, the “remaining binding (% of control)” value ([13]; FLT3(K663Q), 10 µM) was 21, the remaining binding at 10 µM ([13]; FLT3 as printed (Table S4: FLT3(K663Q)), read-out: % Of control) was 21% and the kinase inhibition [14] was 100. It also gave a kinase inhibition [15] of 89, a kinase inhibition [16] of 67 and a kinase inhibition [17] of 86. For the same compound, the kinase inhibition [18] was 100, the kinase inhibition [19] was 84 and the kinase inhibition [20] was 79. The kinase inhibition [21] was 100, the remaining binding at 10 µM ([22]; MKNK2, read-out: % Of control) was 6.6% and the “remaining binding (% of control)” value ([22]; MKNK2, 10 µM) was 6.6. The remaining binding at 10 µM ([22]; MNK2, read-out: Kinome scan (% of control at 10 µM)) was 6.6%, the kinase inhibition [23] was 99 and the kinase inhibition [24] was 91. The kinase inhibition [25] was 87, the kinase inhibition [26] was 100 and the kinase inhibition [27] was 100. For the same compound, the kinase inhibition [28] was 100, the kinase inhibition [29] was 100 and the kinase inhibition [30] was 100. For the same compound, the remaining activity ([31]; 10 µM) was 24, the remaining binding at 10 µM ([31]; read-out: % Of control) was 24% and the kinase inhibition [32] was 100. The kinase inhibition [33] was 88, the kinase inhibition [34] was 100 and the kinase inhibition [35] was 100. The kinase inhibition [36] was 92, the kinase inhibition [37] was 81 and the kinase inhibition [38] was 100. For the same compound, the “remaining binding (% of control)” value [39] was 100, the kinase inhibition [40] was 68 and the kinase inhibition [41] was 94. The kinase inhibition [42] was 100.
